Data set [1] can be described thus: Stability test in presence of protein: calcium salt added to milk, heat treatment. Type of data set: physicochemical. The note with it: 600 ppm calcium added.
Data set [2] in a line: Stability test in presence of protein: calcium salt added to soy milk, heat treatment. The conditions noted are these: 600 ppm calcium added. The class given is physicochemical.

Structures are written as SMILES.

For the molecule `CC(O)C(=O)O.O=C(O)[C@H](O)[C@@H](O)[C@H](O)[C@H](O)CO.O=C([O-])CC(O)(CC(=O)[O-])C(=O)O.[Ca+2]` [calcium lactate gluconate citrate], in data set [1], the “protein stability (coagulation) of the fortified milk after heat treatment” value is recorded as “coaglulated a little to become a quark like substance”. For the same molecule, the “protein stability (coagulation / viscosity) of the fortified soy milk after heat treatment” value in data set [2] was “somewhat increased viscosity after heat treatment, but was still pourable”.
With `CC(O)C(=O)[O-].O=C([O-])[C@H](O)[C@@H](O)[C@H](O)[C@H](O)CO.[Ca+2]` [calcium lactate gluconate], in data set [1], the “protein stability (coagulation) of the fortified milk after heat treatment” value is on record as “completely coagulated to a firm substance”. Moreover, the “protein stability (coagulation / viscosity) of the fortified soy milk after heat treatment” value in data set [2] is “completely coagulated to a firm substance”.

For the origin of these results see US20050153021A1, “Calcium-fortified protein-based beverage containing calcium (lactate) gluconate citrate” (PURAC BIOCHEM BV, priority 2003, published 2005).
